# Measured values published in US5506102A (priority 1993, dated 1996).
# Target: T1, human androgen receptor (Homo sapiens, UniProt P10275)
# T1 sequence (P10275 1-920): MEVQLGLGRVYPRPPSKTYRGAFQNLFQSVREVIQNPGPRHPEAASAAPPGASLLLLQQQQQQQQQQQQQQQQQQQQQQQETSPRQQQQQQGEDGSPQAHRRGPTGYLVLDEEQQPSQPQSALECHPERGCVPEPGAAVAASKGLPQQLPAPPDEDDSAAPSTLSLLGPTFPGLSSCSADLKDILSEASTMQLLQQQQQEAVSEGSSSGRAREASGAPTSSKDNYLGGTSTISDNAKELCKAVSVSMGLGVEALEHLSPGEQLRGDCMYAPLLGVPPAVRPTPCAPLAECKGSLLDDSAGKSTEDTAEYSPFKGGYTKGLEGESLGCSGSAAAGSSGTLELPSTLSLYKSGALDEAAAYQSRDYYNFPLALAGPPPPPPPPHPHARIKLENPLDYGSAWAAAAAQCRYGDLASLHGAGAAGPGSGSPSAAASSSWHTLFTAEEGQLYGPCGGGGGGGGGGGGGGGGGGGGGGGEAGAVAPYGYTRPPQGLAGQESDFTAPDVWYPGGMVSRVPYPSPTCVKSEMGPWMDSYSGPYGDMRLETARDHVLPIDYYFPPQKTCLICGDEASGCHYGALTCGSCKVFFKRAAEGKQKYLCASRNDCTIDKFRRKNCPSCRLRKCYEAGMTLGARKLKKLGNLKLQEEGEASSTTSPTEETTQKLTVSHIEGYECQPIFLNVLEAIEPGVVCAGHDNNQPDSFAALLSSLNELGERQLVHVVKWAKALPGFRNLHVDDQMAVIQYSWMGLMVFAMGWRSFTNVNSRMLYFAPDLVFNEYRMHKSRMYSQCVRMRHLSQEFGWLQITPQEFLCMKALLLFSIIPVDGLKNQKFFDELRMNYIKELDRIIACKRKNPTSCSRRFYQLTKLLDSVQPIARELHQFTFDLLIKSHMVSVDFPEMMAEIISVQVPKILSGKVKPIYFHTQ
# Experiment: AR transcriptional activity on MMTV-LUC, CV-1 cells, AR alone
# Format: cell-based
# Conditions: FIG. 10
# Description: FIGS. 10A-10B are a series of graphs showing CV-1 cells that were transiently transfected with an expression vector for the human androgen receptor (pRShAR) alone, or in combination with phPR-A together with 5 µg/ml of the MMTV-LUC reporter and 5 µg/ml of pCH110 as an internal control. […] The relative luciferase activity is calculated by dividing the normalized luciferase value at a given point by that obtained in the absence of transfected receptor or ligand. […] The data are presented as percent (%) activation, where 100% represents the maximal induction achieved by human androgen receptor at 10^ -8 M DHT. The experimental data represents mean values +/- the average deviation from the mean of quadruplicate estimations;
# Cells were seeded in 12-well, 96-well or 10 cm tissue culture plates. […] 20 μg of DNA/ml of transfection buffer were used in each transfection reaction. In this mix, the concentration of the luciferase plasmids and that of the internal control plasmid pCH110 (Pharmacia, Inc.), which contains the gene for the β-galactosidase enzyme, remained constant ([…] of each plasmid DNA), while the receptor plasmid concentration varied as indicated for each experiment. […]
structure (smiles),measurement,value
CC#C[C@]1(O)CC[C@H]2[C@@H]3CCC4=CC(=O)CCC4=C3[C@@H](c3ccc(C(C)=O)cc3)C[C@@]21C [ZK112993],effect on DHT-induced AR activity,efficient inhibitor of DHT-activated AR
